Source: ChEMBL document CHEMBL6115002, “Discovery of novel sitolactone derivative leading to PANoptosis and differentiation of acute myeloid leukemia cells” (Eur J Med Chem, 2025)
Calls of active or inactive are those of the source. The calls are words filed in the database; no cut-off is given here.

Key:
[1] = system: Kasumi 1; experiment: Antiproliferative activity against human Kasumi 1 cells assessed as inhibition cell proliferation incubated for 72 hrs by MTT assay; type: functional, cell-based; settings: Kasumi 1, 72 h
[2] = system: HCT-116; experiment: Inhibition of tumor sphere formation in human HCT-116 cells at 1.25 uM incubated for 24 hrs; type: functional, cell-based
[3] = system: MV4-11; experiment: Antiproliferative activity against human MV4-11 cells assessed as inhibition cell proliferation incubated for 72 hrs by MTT assay; type: functional, cell-based; settings: MV4-11, 72 h
[4] = Permeability of compound in human Caco-2 cells; type: ADME, cell-based
[5] = Antiproliferative activity against mouse WEHI-3 cells assessed as inhibition cell proliferation incubated for 72 hrs by MTT assay; type: functional, cell-based; settings: WEHI-3, 72 h
[6] = system: WEHI-3; experiment: Induction of […] in mouse WEHI-3 cells assessed as activation of p-MLKL level at 25 to 50 uM incubated for 24 hrs by Western blotting analysis; type: functional, cell-based; settings: dose 25-50 µM
[7] = system: WEHI-3; experiment: Induction of […] in mouse WEHI-3 cells assessed as activation of p-RIPK3 level at 25 to 50 uM incubated for 24 hrs by Western blotting analysis; type: functional, cell-based; settings: dose 25-50 µM
[8] = system: Kasumi 1; experiment: Induction of apoptosis in human Kasumi 1 cells assessed as increase in cleaved PARP-1 level incubated for 24 hrs by Western blotting analysis; type: functional, cell-based; settings: dose 25-50 µM
[9] = system: Mus musculus; experiment: Antitumor activity against Balb/c mouse implanted with mouse WEHI-3 cells assessed as reduction in hepatomegaly at 1 mg/kg, po administered once daily for 15 days; type: functional, organism-based; settings: time 15.0 day
[10] = system: WEHI-3; experiment: Induction of apoptosis in mouse WEHI-3 cells assessed as increase in cleaved PARP-1 level incubated for 24 hrs by Western blotting analysis; type: functional, cell-based; settings: dose 25-50 µM
[11] = system: WEHI-3; experiment: Induction of apoptosis in mouse WEHI-3 cells assessed as increase in caspase-3 level incubated for 24 hrs by Western blotting analysis; type: functional, cell-based; settings: dose 25-50 µM
[12] = system: Kasumi 1; experiment: Induction of […] in human Kasumi 1 cells assessed as activation of p-MLKL level at 25 to 50 uM incubated for 24 hrs by Western blotting analysis; type: functional, cell-based; settings: dose 25-50 µM
[13] = system: Kasumi 1; experiment: Induction of […] in human Kasumi 1 cells assessed as activation of p-RIPK3 level at 25 to 50 uM incubated for 24 hrs by Western blotting analysis; type: functional, cell-based; settings: dose 25-50 µM
[14] = system: Kasumi 1; experiment: Induction of apoptosis in human Kasumi 1 cells assessed as increase in caspase-3 level incubated for 24 hrs by Western blotting analysis; type: functional, cell-based; settings: dose 25-50 µM
[15] = system: WEHI-3; experiment: Antitumor activity against mouse WEHI-3 cells implanted in Balb/c mouse assessed as reduction in liver metastasis at 100 to 200 mg/kg, po administered daily for 15 days by H and E staining based analysis; type: functional, organism-based; settings: dose 100-200 mg/kg, time 15.0 day
[16] = Cmax in male Sprague-Dawley rat at 200 mg/kg, po measured after 18 hrs LC/MS-MS analysis; type: ADME, organism-based; settings: in vivo
[17] = Half life in male Sprague-Dawley rat at 50 mg/kg, iv measured after 18 hrs LC/MS-MS analysis; type: ADME, organism-based; settings: in vivo
[18] = Oral bioavailability in male Sprague-Dawley rat at 200 mg/kg measured after 18 hrs LC/MS-MS analysis; type: ADME, organism-based; settings: in vivo
[19] = AUC(0 to t) in male Sprague-Dawley rat at 200 mg/kg, po measured after 18 hrs LC/MS-MS analysis; type: ADME, organism-based; settings: in vivo
[20] = AUC (0 to t) in male Sprague-Dawley rat at 50 mg/kg, iv measured after 18 hrs LC/MS-MS analysis; type: ADME, organism-based; settings: in vivo
[21] = system: Mus musculus; experiment: Antitumor activity against Balb/c mouse implanted with mouse WEHI-3 cells assessed as reduction in splenomegaly at 1 mg/kg, po administered once daily for 15 days; type: functional, organism-based; settings: time 15.0 day
[22] = Cmax in male Sprague-Dawley rat at 50 mg/kg, iv measured after 18 hrs LC/MS-MS analysis; type: ADME, organism-based; settings: in vivo
[23] = Half life in male Sprague-Dawley rat at 200 mg/kg, po measured after 18 hrs LC/MS-MS analysis; type: ADME, organism-based; settings: in vivo
[24] = system: Mus musculus; experiment: Antitumor activity against Balb/c mouse implanted with mouse WEHI-3 cells assessed as reduction in hepatomegaly at 100 to 200 mg/kg, po administered once daily for 15 days; type: functional, organism-based; settings: dose 100-200 mg/kg, time 15.0 day
[25] = system: Mus musculus; experiment: Antitumor activity against Balb/c mouse implanted with mouse WEHI-3 cells assessed as reduction in splenomegaly at 100 to 200 mg/kg, po administered once daily for 15 days; type: functional, organism-based; settings: dose 100-200 mg/kg, time 15.0 day
[26] = system: Kasumi 1; experiment: Upregulation of SMARCA4 protein level in human Kasumi 1 cells by pull down based Western blotting analysis; type: functional, cell-based
[27] = system: Kasumi 1; experiment: Upregulation of SMARCA2 protein level in human Kasumi 1 cells by pull down based Western blotting analysis; type: functional, cell-based
[28] = system: Kasumi 1; experiment: Upregulation of SMARCB1 protein level in human Kasumi 1 cells by pull down based Western blotting analysis; type: functional, cell-based

Row | Compound | IC50 [1] | IC50 [3] | IC50 [5] | also measured
1 | C=C1C[C@@H]2[C@@H](CC[C@]3(C)[C@@H](OC(c4ccccc4)(c4ccccc4)c4ccccc4)CC[C@@H]23)OC1=O | 1.85 µM | 2.68 µM | 1.03 µM | inhibition [2]: inactive; permeability [4]: Permeable
2 | COC(=O)C[C@](O)(CCCC(C)(C)O)C(=O)O[C@@H]1C(OC)=C[C@]23CCCN2CCc2cc4c(cc2[C@H]13)OCO4 | – | – | – | Activity [6]: inactive; Activity [7]: inactive; Activity [8]: Dose-dependent-effect; Activity [9]: Active; Activity [10]: Dose-dependent-effect; Activity [11]: Dose-dependent-effect; Activity [12]: inactive; Activity [13]: inactive; Activity [14]: Dose-dependent-effect
3 | CC(C)[Si](O[C@H]1CC[C@H]2[C@@H]3CC(CN4CCC[C@H]4CO)C(=O)O[C@@H]3CC[C@]12C)(C(C)C)C(C)C (some centres undefined) | – | – | – | Activity [15]: Active; Cmax [16]: 17700 ng/mL; half-life [17]: 16.3 min; bioavailability [18]: 68.6%; AUC(0-t) at 18 h [19]: 19600 ng·h/mL; AUC(0-t) at 18 h [20]: 7150 ng·h/mL; Activity [21]: Active; Cmax [22]: 12100 ng/mL; half-life [23]: 59.8 min; Activity [24]: Active; Activity [25]: Active
4 | C=C1C[C@@H]2[C@@H](CC[C@]3(C)[C@@H](OC(=O)c4ccc(OC)cc4)CC[C@@H]23)OC1=O | 15.4 µM | > 20 µM | 9.43 µM | –
5 | C=C1C[C@@H]2[C@@H](CC[C@]3(C)[C@@H](OC(=O)c4ccccc4)CC[C@@H]23)OC1=O | 18.8 µM | 16 µM | 10.3 µM | –
6 | C=C1C[C@@H]2[C@@H](CC[C@]3(C)[C@@H](OS(=O)(=O)CCC)CC[C@@H]23)OC1=O | > 20 µM | > 20 µM | > 20 µM | –
7 | C=C1C[C@@H]2[C@@H](CC[C@]3(C)[C@@H](O[Si](CC)(CC)CC)CC[C@@H]23)OC1=O | 2.97 µM | 4.53 µM | 2.14 µM | –
8 | C=C1C[C@@H]2[C@@H](CC[C@]3(C)[C@@H](OC(=O)C4CC4)CC[C@@H]23)OC1=O | > 20 µM | > 20 µM | > 20 µM | –
9 | C=C1C[C@@H]2[C@@H](CC[C@]3(C)[C@@H](O[Si](OCC)(OCC)OCC)CC[C@@H]23)OC1=O | > 20 µM | > 20 µM | > 20 µM | –
10 | C=C1C[C@@H]2[C@@H](CC[C@]3(C)[C@@H](OS(=O)(=O)CCCCCCC)CC[C@@H]23)OC1=O | > 20 µM | > 20 µM | > 20 µM | –
11 | C=C1C[C@@H]2[C@@H](CC[C@]3(C)[C@@H](OC(=O)c4ccc(F)cc4)CC[C@@H]23)OC1=O | 10.4 µM | 13.4 µM | 6.27 µM | –
12 | C=C1C[C@@H]2[C@@H](CC[C@]3(C)[C@@H](O[Si](c4ccccc4)(c4ccccc4)c4ccccc4)CC[C@@H]23)OC1=O | 5.86 µM | 5.32 µM | 4.61 µM | –
13 | C=C1C[C@@H]2[C@@H](CC[C@]3(C)[C@@H](OS(=O)(=O)C[C@]45CC[C@](C)(C(=O)C4)C5(C)C)CC[C@@H]23)OC1=O | 9.8 µM | 12.3 µM | 8.29 µM | –
14 | C=C1C[C@@H]2[C@@H](CC[C@]3(C)[C@@H](OS(=O)(=O)c4c(C)noc4C)CC[C@@H]23)OC1=O | 14.3 µM | 15.9 µM | 13.3 µM | –
15 | C=C1C[C@@H]2[C@@H](CC[C@]3(C)[C@@H](O[Si](C)(C)CCCCCCCCCCCCCCCCCC)CC[C@@H]23)OC1=O | 5.93 µM | 8.89 µM | 6.25 µM | –
16 | C#CCCCC(=O)O[C@H]1CC[C@H]2[C@@H]3CC(=C)C(=O)O[C@@H]3CC[C@]12C | > 20 µM | > 20 µM | > 20 µM | –
17 | CC(C)[Si](O[C@H]1CC[C@H]2[C@@H]3CC(CCCc4cn(CCOCCOCCOCCNC(=O)CCCC[C@@H]5SC[C@@H]6NC(=O)N[C@@H]65)nn4)C(=O)O[C@@H]3CC[C@]12C)(C(C)C)C(C)C (some centres undefined) | – | – | – | Activity [26]: Active; Activity [27]: Active; Activity [28]: Active
18 | C=C1C[C@@H]2[C@@H](CC[C@]3(C)[C@@H](OC(c4ccccc4)(c4ccc(OC)cc4)c4ccc(OC)cc4)CC[C@@H]23)OC1=O | 1.46 µM | 3.04 µM | 0.94 µM | inhibition [2]: inactive; permeability [4]: Permeable
19 | C=C1C[C@@H]2[C@@H](CC[C@]3(C)[C@@H](OS(=O)(=O)c4ccc(C)cc4)CC[C@@H]23)OC1=O | 8.25 µM | 9.46 µM | 9.28 µM | –
20 | C=C[Si](C)(O[C@H]1CC[C@H]2[C@@H]3CC(=C)C(=O)O[C@@H]3CC[C@]12C)c1ccccc1 (some centres undefined) | 16.3 µM | > 20 µM | 15.4 µM | –
21 | C=C[Si](C)(C)O[C@H]1CC[C@H]2[C@@H]3CC(=C)C(=O)O[C@@H]3CC[C@]12C | > 20 µM | > 20 µM | > 20 µM | –
22 | C=C1C[C@@H]2[C@@H](CC[C@]3(C)[C@@H](OC(=O)c4ccc(C(F)(F)F)cc4)CC[C@@H]23)OC1=O | 9.97 µM | 16.6 µM | 10.2 µM | –
23 | C=C1C[C@@H]2[C@@H](CC[C@]3(C)[C@@H](OS(=O)(=O)c4cccnc4)CC[C@@H]23)OC1=O | 10.9 µM | > 20 µM | 13.3 µM | –
24 | C=C1C[C@@H]2[C@@H](CC[C@]3(C)[C@@H](OS(=O)(=O)c4ccc(OC)cc4)CC[C@@H]23)OC1=O | 8.36 µM | 14.6 µM | 9.29 µM | –
25 | CC(C)[Si](O[C@H]1CC[C@H]2[C@@H]3CCC(=O)O[C@@H]3CC[C@]12C)(C(C)C)C(C)C | > 20 µM | > 20 µM | > 20 µM | –
26 | C=C1C[C@@H]2[C@@H](CC[C@]3(C)[C@@H](OS(=O)(=O)c4ccc(C#N)cc4)CC[C@@H]23)OC1=O | 8.92 µM | 9.13 µM | 7.62 µM | –
27 | C=C1C[C@@H]2[C@@H](CC[C@]3(C)[C@@H](OC(=O)c4ccc(CC)cc4)CC[C@@H]23)OC1=O | 10.3 µM | 16.4 µM | 6.73 µM | –
